Measured values as given in patent US20050182025A1, “Amidinylphenyl compounds and their use as fungicides” (priority 2002, published 2005).

What was measured:
Format in all cases: in vivo
Puccinia recondita = experiment: Test B: preventive spray on wheat seedlings, wheat leaf rust, disease rating; conditions: wheat seedlings sprayed to run-off, inoculated the following day with Puccinia recondita, 24 h saturated atmosphere then 6 days at 20° C.; test concentration not given
Summary of the method: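 Compound suspended in acetone/water (50/50) with 250 ppm Trem 014 surfactant, sprayed to run-off on wheat seedlings (200 ppm ≈ 500 g/ha); P. recondita spores inoculated next day. Plants held 24 h saturated at 20° C, then 6 days at 20° C; disease rated as % control relative to untreated (100 = full control).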

Septoria nodorum = experiment: Test C: preventive spray on wheat seedlings, Septoria glume blotch, disease rating; conditions: wheat seedlings sprayed to run-off, inoculated the following day with Septoria nodorum, 48 h saturated atmosphere then 9 days at 20° C.; test concentration not given
Summary of the method: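 Wheat seedlings were sprayed to run-off with compound suspensions in acetone/water containing 250 ppm Trem 014 (200 ppm equals 500 g/ha), then inoculated with Septoria nodorum spores next day. Plants were held 48 h saturated at 20° C., then 9 days at 20° C. Disease control was rated 0–100 relative to controls.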

[1] = tested on: Erysiphe graminis f. sp. tritici; experiment: Test A: preventive spray on wheat seedlings, wheat powdery mildew, disease rating; conditions: wheat seedlings sprayed to run-off, inoculated the following day with Erysiphe graminis f. sp. tritici, rated after 7 days at 20° C.; test concentration not given
Summary of the method: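 Wheat seedlings sprayed to run-off with compound suspension (200 ppm ≈ 500 g/ha) in acetone/water with surfactant, inoculated next day with Erysiphe graminis f. sp. tritici spores. After 7 days at 20 °C, disease rated 0–100 as % control relative to untreated plants.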

| SMILES | Test B disease control rating (100 = 100% disease control, 0 = no disease control relative to the controls) (Puccinia recondita) | Test C disease control rating (100 = 100% disease control, 0 = no disease control relative to the controls) (Septoria nodorum) | Test A disease control rating (100 = 100% disease control, 0 = no disease control relative to the controls) [1] |
| --- | --- | --- | --- |
| CCN(C(=S)Nc1cc(Cl)c(OCCCC(C)C)cc1Cl)C(C)C [compound 127] | 99% | 100% | 0% |
| COC(=O)C(=Nc1cc(C)c(OCCC[Si](C)(C)C)cc1C)N(C)C [compound 128] | 95% | 73% | 98% |
| CCN(C)C(=Nc1cc(Cl)c(OCCC[Si](C)(C)C)cc1C)C(=O)OC [compound 129] | 100% | 67% | 100% |
| COC(=O)C(=Nc1cc(Cl)c(OCCC[Si](C)(C)C)cc1C)N(C)C [compound 130] | 97% | 0% | 100% |
| CCN(C)C(=Nc1cc(C)c(OCCC[Si](C)(C)C)cc1C)C(=O)OC [compound 131] | 100% | 96% | 67% |
| Cc1cc(OCCCC(C)C)c(C)cc1N=CN(C)C [compound 132] | 100% | 97% | 98% |
| Cc1cc(NC(=S)N(C)C)c(C)c(Cl)c1OCCC[Si](C)(C)C [compound 133] | 85% | 53% | 99% |
| CCN(C)C(=S)Nc1cc(C)c(OCCC[Si](C)(C)C)c(Cl)c1C [compound 134] | 100% | 81% | 100% |
| Cc1cc(NC(=S)N(C)C)c(C)c(Cl)c1OCCCC(C)C [compound 136] | 91% | 84% | 95% |
| CCN(C)C(=S)Nc1cc(C)c(OCCCC(C)C)c(Cl)c1C [compound 137] | 100% | 84% | 100% |
| Cc1cc(NC(=S)N(C)C)c(C)c(Cl)c1OCCCC(C)(C)C [compound 138] | 74% | 60% | 98% |
| CCN(C)C(=S)Nc1cc(C)c(OCCCC(C)(C)C)c(Cl)c1C [compound 139] | 100% | 99% | 100% |
| CCN(C)C=Nc1cc(C)c(OCCC[Si](C)(C)C)c(Cl)c1C [compound 140] | 100% | 100% | 100% |
| CCCCC(CCC)Sc1cc(C)c(N=CN(C)C)cc1C (stereo not drawn) [compound 141] | 99% | 100% | 0% |
| CCCCC(CCC)Sc1cc(C)c(N=C(C)N(C)C)cc1C (stereo not drawn) [compound 142] | 0% | 53% | 0% |
| CCCCC(CCCC)Sc1cc(C)c(N=C(C)N(C)C)cc1C [compound 143] | 0% | 80% | 0% |

| SMILES | Test B disease control rating (100 = 100% disease control, 0 = no disease control relative to the controls) (Puccinia recondita) | Test C disease control rating (100 = 100% disease control, 0 = no disease control relative to the controls) (Septoria nodorum) | Test A disease control rating (100 = 100% disease control, 0 = no disease control relative to the controls) [1] |
| --- | --- | --- | --- |
| Cc1cc(NCCC(C)CC(C)(C)C)c(C)cc1N=CN(C)C (stereo not drawn) [compound 147] | 0% | 53% | 0% |
| CCCC(CCC(C)C)Nc1cc(C)c(N=CN(C)C)cc1C (stereo not drawn) [compound 148] | 0% | 47% | 0% |
| CCCCC(CCCC)Nc1cc(C)c(N=CN(C)C)cc1C [compound 150] | 0% | 47% | 0% |
| Cc1cc(NC(CCC(C)C)CCC(C)C)c(C)cc1N=CN(C)C [compound 151] | 0% | 60% | 0% |
| Cc1cc(NCCCC(C)C)c(C)cc1N=CN(C)C [compound 154] | 0% | 47% | 0% |
| CCCCC(CCCC)Sc1cc(C)c(N=CN(C)C)cc1C [compound 155] | 23% | 95% | 0% |
| Cc1cc(SCCCC(C)C)c(C)cc1N=CN(C)C [compound 156] | 100% | 100% | 93% |
| CCCC(CCC)Sc1cc(C)c(N=CN(C)C)cc1C [compound 157] | 96% | 99% | 0% |
| Cc1cc(SC(CCC(C)C)CCC(C)C)c(C)cc1N=CN(C)C [compound 159] | 100% | 47% | 94% |
| CCCCC(CCC)Sc1cc(C)c(N=CN(C)C)cc1C (stereo not drawn) [compound 160] | 55% | 0% | 0% |
| C=C(C)CC(CC)Sc1cc(C)c(N=CN(C)C)cc1C (stereo not drawn) [compound 161] | 100% | 53% | 72% |
| CCN(CC)C(=S)Nc1cc(C)c(OCCC[Si](C)(C)C)cc1C [compound 163] | 100% | 73% | 32% |
| CCN(C)C(=S)Nc1cc(C)c(OCCC[Si](C)(C)C)cc1C [compound 164] | 100% | 100% | 100% |
| Cc1cc(OCCOC(C)(C)C)c(C)cc1NC(=S)N(C)C [compound 165] | 28% | 0% | 0% |
| Cc1cc(OCCC[Si](C)(C)C)c(C)cc1NC(=S)N(C)C [compound 167] | 99% | 100% | 99% |
| Cc1cc(OCCC[Si](C)(C)C)c(Cl)cc1NC(=S)N(C)C [compound 168] | 100% | 100% | 99% |
